Numbers after ± are expanded uncertainties.
Legend:
[1] = 308.15 K; 101 kPa; Liquid
[2] = xn = mol fraction of the nth substance listed; conditions: 308.15 K, 101 kPa, Liquid

With `ClC(Cl)C(Cl)Cl` [1,1,2,2-tetrachloroethane] the mass density [1] was 1572.4 ± 2.9 kg/m3 and the viscosity [1] was 1.334 ± 0.033 mPa·s.
`ClC(Cl)C(Cl)Cl` [1,1,2,2-tetrachloroethane] + CNC(C)=O showed a mass density ([2]; x2 = 0) of 1572.4 ± 2.9 kg/m3 and a viscosity ([2]; x2 = 0) of 1.334 ± 0.033 mPa·s.
In the case of `ClCC(Cl)Cl` [1,1,2-trichloroethane], the mass density [1] is reported as 1416.1 ± 3.2 kg/m3 and the viscosity [1] is reported as 0.903 ± 0.017 mPa·s.
For `ClCC(Cl)Cl` [1,1,2-trichloroethane] + CNC(C)=O, the mass density ([2]; x2 = 0) was 1416.1 ± 3.2 kg/m3, the viscosity ([2]; x2 = 0) was 0.903 ± 0.017 mPa·s and the mass density ([2]; x2 = 0.0706) was 1390.4 ± 3 kg/m3. For the same molecule, the viscosity ([2]; x2 = 0.0706) was 1.003 ± 0.018 mPa·s, the mass density ([2]; x2 = 0.2356) was 1324.2 ± 2.6 kg/m3 and the viscosity ([2]; x2 = 0.2356) was 1.365 ± 0.022 mPa·s. The mass density ([2]; x2 = 0.3484) was 1276 ± 2.3 kg/m3, the viscosity ([2]; x2 = 0.3484) was 1.771 ± 0.026 mPa·s and the mass density ([2]; x2 = 0.452) was 1229.9 ± 2.1 kg/m3. The viscosity ([2]; x2 = 0.452) was 2.18 ± 0.03 mPa·s, the mass density ([2]; x2 = 0.5461) was 1186.3 ± 1.9 kg/m3 and the viscosity ([2]; x2 = 0.5461) was 2.537 ± 0.034 mPa·s. It also gave a mass density ([2]; x2 = 0.643) of 1139.1 ± 1.7 kg/m3, a viscosity ([2]; x2 = 0.643) of 2.88 ± 0.038 mPa·s and a mass density ([2]; x2 = 0.7345) of 1092.7 ± 1.6 kg/m3. The viscosity ([2]; x2 = 0.7345) was 3.105 ± 0.04 mPa·s, the mass density ([2]; x2 = 0.8235) was 1045.8 ± 1.4 kg/m3 and the viscosity ([2]; x2 = 0.8235) was 3.249 ± 0.041 mPa·s. It also gave a mass density ([2]; x2 = 0.9497) of 975.3 ± 1.3 kg/m3 and a viscosity ([2]; x2 = 0.9497) of 3.345 ± 0.041 mPa·s.
`ClCCCl` [1,2-dichloroethane] gave a mass density [1] of 1230.8 ± 1.7 kg/m3 and a viscosity [1] of 0.646 ± 0.013 mPa·s.
For `ClCCCl` [1,2-dichloroethane] + CNC(C)=O, the mass density ([2]; x2 = 0) was 1230.8 ± 1.7 kg/m3 and the viscosity ([2]; x2 = 0) was 0.646 ± 0.013 mPa·s.
`CNC(C)=O` [N-methylacetamide] showed a mass density [1] of 945.9 ± 1.2 kg/m3 and a viscosity [1] of 3.312 ± 0.04 mPa·s.
With `CNC(C)=O` [N-methylacetamide] + ClC(Cl)=C(Cl)Cl the mass density ([2]; x1 = 0.0571) was 1573.5 ± 2.3 kg/m3, the viscosity ([2]; x1 = 0.0571) was 0.801 ± 0.014 mPa·s and the mass density ([2]; x1 = 0.2569) was 1463.9 ± 2.1 kg/m3. For the same molecule, the viscosity ([2]; x1 = 0.2569) was 1.541 ± 0.021 mPa·s, the mass density ([2]; x1 = 0.3691) was 1396.5 ± 2 kg/m3 and the viscosity ([2]; x1 = 0.3691) was 1.895 ± 0.024 mPa·s. It also gave a mass density ([2]; x1 = 0.4749) of 1330.8 ± 1.8 kg/m3, a viscosity ([2]; x1 = 0.4749) of 2.195 ± 0.027 mPa·s and a mass density ([2]; x1 = 0.5719) of 1268.3 ± 1.7 kg/m3. The viscosity ([2]; x1 = 0.5719) was 2.411 ± 0.03 mPa·s, the mass density ([2]; x1 = 0.6637) was 1206.2 ± 1.6 kg/m3 and the viscosity ([2]; x1 = 0.6637) was 2.61 ± 0.032 mPa·s. For the same molecule, the mass density ([2]; x1 = 0.7039) was 1178 ± 1.6 kg/m3, the viscosity ([2]; x1 = 0.7039) was 2.696 ± 0.033 mPa·s and the mass density ([2]; x1 = 0.8385) was 1078.2 ± 1.4 kg/m3. For the same molecule, the viscosity ([2]; x1 = 0.8385) was 2.981 ± 0.037 mPa·s, the mass density ([2]; x1 = 0.9666) was 974.6 ± 1.2 kg/m3 and the viscosity ([2]; x1 = 0.9666) was 3.245 ± 0.04 mPa·s. For the same molecule, the mass density ([2]; x1 = 1) was 945.9 ± 1.2 kg/m3 and the viscosity ([2]; x1 = 1) was 3.312 ± 0.04 mPa·s.
Work on `CNC(C)=O` [N-methylacetamide] + ClC(Cl)C(Cl)Cl yielded a mass density ([2]; x1 = 0.0621) of 1545.5 ± 2.8 kg/m3, a viscosity ([2]; x1 = 0.0621) of 1.499 ± 0.037 mPa·s and a mass density ([2]; x1 = 0.2627) of 1450.5 ± 2.4 kg/m3. It also gave a viscosity ([2]; x1 = 0.2627) of 2.226 ± 0.053 mPa·s, a mass density ([2]; x1 = 0.3728) of 1393 ± 2.2 kg/m3 and a viscosity ([2]; x1 = 0.3728) of 2.726 ± 0.064 mPa·s. The mass density ([2]; x1 = 0.4796) was 1331.6 ± 2 kg/m3, the viscosity ([2]; x1 = 0.4796) was 3.398 ± 0.078 mPa·s and the mass density ([2]; x1 = 0.5797) was 1268.9 ± 1.9 kg/m3. For the same molecule, the viscosity ([2]; x1 = 0.5797) was 3.936 ± 0.09 mPa·s, the mass density ([2]; x1 = 0.6722) was 1206.5 ± 1.7 kg/m3 and the viscosity ([2]; x1 = 0.6722) was 4.291 ± 0.097 mPa·s. For the same molecule, the mass density ([2]; x1 = 0.7594) was 1143.7 ± 1.6 kg/m3, the viscosity ([2]; x1 = 0.7594) was 4.404 ± 0.099 mPa·s and the mass density ([2]; x1 = 0.8413) was 1080.7 ± 1.5 kg/m3. It also gave a viscosity ([2]; x1 = 0.8413) of 4.036 ± 0.091 mPa·s, a mass density ([2]; x1 = 0.9679) of 974.8 ± 1.2 kg/m3 and a viscosity ([2]; x1 = 0.9679) of 3.533 ± 0.08 mPa·s. The mass density ([2]; x1 = 1) was 945.9 ± 1.2 kg/m3 and the viscosity ([2]; x1 = 1) was 3.312 ± 0.075 mPa·s.
For `CNC(C)=O` [N-methylacetamide] + ClC=C(Cl)Cl, the mass density ([2]; x1 = 0.0514) was 1417.9 ± 2 kg/m3, the viscosity ([2]; x1 = 0.0514) was 0.564 ± 0.013 mPa·s and the mass density ([2]; x1 = 0.2353) was 1340.4 ± 1.9 kg/m3. For the same molecule, the viscosity ([2]; x1 = 0.2353) was 1.015 ± 0.016 mPa·s, the mass density ([2]; x1 = 0.3404) was 1293.3 ± 1.8 kg/m3 and the viscosity ([2]; x1 = 0.3404) was 1.291 ± 0.018 mPa·s. It also gave a mass density ([2]; x1 = 0.4437) of 1244.6 ± 1.7 kg/m3, a viscosity ([2]; x1 = 0.4437) of 1.578 ± 0.021 mPa·s and a mass density ([2]; x1 = 0.5419) of 1196.4 ± 1.6 kg/m3. The viscosity ([2]; x1 = 0.5419) was 1.856 ± 0.024 mPa·s, the mass density ([2]; x1 = 0.6357) was 1148.5 ± 1.5 kg/m3 and the viscosity ([2]; x1 = 0.6357) was 2.15 ± 0.027 mPa·s. For the same molecule, the mass density ([2]; x1 = 0.7288) was 1099.4 ± 1.4 kg/m3, the viscosity ([2]; x1 = 0.7288) was 2.45 ± 0.03 mPa·s and the mass density ([2]; x1 = 0.8196) was 1049.9 ± 1.4 kg/m3. The viscosity ([2]; x1 = 0.8196) was 2.74 ± 0.034 mPa·s, the mass density ([2]; x1 = 0.9692) was 964.4 ± 1.2 kg/m3 and the viscosity ([2]; x1 = 0.9692) was 3.215 ± 0.039 mPa·s. For the same molecule, the mass density ([2]; x1 = 1) was 945.9 ± 1.2 kg/m3 and the viscosity ([2]; x1 = 1) was 3.312 ± 0.04 mPa·s.
In the case of `CNC(C)=O` [N-methylacetamide] + ClCC(Cl)Cl, the mass density ([2]; x1 = 1) is reported as 945.9 ± 1.2 kg/m3 and the viscosity ([2]; x1 = 1) is reported as 3.312 ± 0.04 mPa·s.
In the case of `CNC(C)=O` [N-methylacetamide] + ClCCCl, the mass density ([2]; x1 = 0.063) is reported as 1213.8 ± 1.6 kg/m3, the viscosity ([2]; x1 = 0.063) is reported as 0.705 ± 0.014 mPa·s and the mass density ([2]; x1 = 0.134) is reported as 1194.7 ± 1.6 kg/m3. For the same molecule, the viscosity ([2]; x1 = 0.134) was 0.785 ± 0.014 mPa·s, the mass density ([2]; x1 = 0.2632) was 1159.1 ± 1.5 kg/m3 and the viscosity ([2]; x1 = 0.2632) was 1.024 ± 0.016 mPa·s. The mass density ([2]; x1 = 0.3875) was 1124.3 ± 1.5 kg/m3, the viscosity ([2]; x1 = 0.3875) was 1.342 ± 0.019 mPa·s and the mass density ([2]; x1 = 0.4442) was 1108.2 ± 1.4 kg/m3. For the same molecule, the viscosity ([2]; x1 = 0.4442) was 1.5 ± 0.02 mPa·s, the mass density ([2]; x1 = 0.5064) was 1090.5 ± 1.4 kg/m3 and the viscosity ([2]; x1 = 0.5064) was 1.694 ± 0.022 mPa·s. It also gave a mass density ([2]; x1 = 0.6863) of 1038.5 ± 1.3 kg/m3, a viscosity ([2]; x1 = 0.6863) of 2.245 ± 0.028 mPa·s and a mass density ([2]; x1 = 0.807) of 1003.1 ± 1.3 kg/m3. The viscosity ([2]; x1 = 0.807) was 2.651 ± 0.033 mPa·s, the mass density ([2]; x1 = 0.931) was 966.5 ± 1.2 kg/m3 and the viscosity ([2]; x1 = 0.931) was 3.083 ± 0.038 mPa·s. For the same molecule, the mass density ([2]; x1 = 1) was 945.9 ± 1.2 kg/m3 and the viscosity ([2]; x1 = 1) was 3.312 ± 0.04 mPa·s.
For `ClC(Cl)=C(Cl)Cl` [tetrachloroethene], the mass density [1] was 1599.2 ± 2.3 kg/m3 and the viscosity [1] was 0.723 ± 0.014 mPa·s.
`ClC(Cl)=C(Cl)Cl` [tetrachloroethene] + CNC(C)=O gave a mass density ([2]; x2 = 0) of 1599.2 ± 2.3 kg/m3 and a viscosity ([2]; x2 = 0) of 0.723 ± 0.014 mPa·s.
In the case of `ClC=C(Cl)Cl` [trichloroethene], the mass density [1] is reported as 1438.5 ± 2 kg/m3 and the viscosity [1] is reported as 0.46 ± 0.012 mPa·s.
With `ClC=C(Cl)Cl` [trichloroethene] + CNC(C)=O the mass density ([2]; x2 = 0) was 1438.5 ± 2 kg/m3 and the viscosity ([2]; x2 = 0) was 0.46 ± 0.012 mPa·s.
